pIC50: −log10 of the molar value. Where a name gives a salt, the structure may show the parent alone.
Assays:
rh beta tryptase = biological target: T1, rh beta tryptase (Homo sapiens, UniProt P20231); assay: Tryptase inhibition test (cleavage of N-p-tosyl-Gly-Pro-Lys-para-nitroaniline, p-nitroaniline measured at 405 nm); assay type: biochemical; settings: concentration at which 50% of the tryptase enzyme activity is inhibited; substrate 0.6 mM, pH 7.4, 37° C.
T1 construct: purchased Promega
Procedure, shortened: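 Recombinant human beta tryptase (0.91 U/ml) in 100 mM Tris HCl pH 7.4 with 5 mM calcium and 100 mg/ml heparin; compounds pre-incubated 5 min, then 0.6 mM tosyl-Gly-Pro-Lys-pNA added, 5 min at 37 °C. p-Nitroaniline read at 405 nm; % inhibition at 10 μM, IC50 determined when inhibition exceeded 70%.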

T1 sequence (P20231 31-275): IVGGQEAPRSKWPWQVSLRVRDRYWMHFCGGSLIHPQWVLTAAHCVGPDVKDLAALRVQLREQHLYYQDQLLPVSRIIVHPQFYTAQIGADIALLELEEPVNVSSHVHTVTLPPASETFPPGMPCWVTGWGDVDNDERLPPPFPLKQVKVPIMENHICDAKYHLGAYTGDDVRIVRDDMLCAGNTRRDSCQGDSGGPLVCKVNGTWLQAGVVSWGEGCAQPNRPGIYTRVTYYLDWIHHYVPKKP

SMILES	melting point [°C]	pIC50 (rh beta tryptase)
Cn1c(CCc2ccc(CN)cc2)nc2cc(C(=O)NCCC(c3ccccc3)c3ccccc3)ccc21 (as salt: hydrochloride) [Example 40, 2-[2-(4-Aminomethyl-phenyl)-ethyl]-1-methyl-benzimidazol-5-yl-carboxylic Acid-N-(3,3-diphenylpropyl)-amide-dihydrochloride]	140	
Cn1c(CCc2ccc(CN)cc2)nc2cc(C(=O)N(CCC(c3ccccc3)c3ccccc3)Cc3ccc(CN)cc3)ccc21 (as salt: hydrochloride) [Example 43, 2-[2-(4-Aminomethyl-phenyl)-ethyl]-1-methyl-benzimidazol-5-yl-carboxylic Acid-N-(4-aminomethylbenzyl)-N-(3,3-diphenylpropyl)-amide-dihydrochloride]	140	
Cl.Cl.Cn1c(CCc2ccc(C(=N)N)cc2)nc2cc(C(=O)N(CCN(Cc3ccccc3)Cc3ccccc3)C3CCCCC3)ccc21 [Example 2, 2-[2-(4-Amidinophenyl)ethyl]-1-methyl-benzimidazol-5-yl-carboxylic Acid-N-[2-(N,N-dibenzylamino)ethyl]-N-cyclohexyl-amide-dihydrochloride]	140 to 148	6.82

The next lines start with the values.

melting point [°C]	pIC50 (rh beta tryptase)	SMILES
222 to 225		Cc1ccc(N(CCC(=N)N)C(=O)c2ccc3c(c2)nc(CCc2ccc(C(=N)N)cc2)n3C)cc1 (as salt: hydrochloride) [Example 26, 2-[2-(4-Amidinophenyl)-ethyl]-1-methyl-benzimidazol-5-yl-carboxylic Acid-N-(2-amidinoethyl)-N-(4-methyl-phenyl)-amide-dihydrochloride]
195 to 200		CC(C)N(CCC(=N)N)C(=O)c1ccc2c(c1)nc(CCc1ccc(C(=N)N)cc1)n2C (as salt: hydrochloride) [Example 27, 2-[2-(4-Amidinophenyl)-ethyl]-1-methyl-benzimidazol-5-yl-carboxylic Acid-N-(2-amidinoethyl)-N-iso-propyl-amide-dihydrochloride]
165		Cn1c(CCc2ccc(C(=N)N)cc2)nc2cc(C(=O)NC(Cc3ccc(C(=N)N)cc3)C(=O)O)ccc21 (stereo not shown) [Example 30, 2-{2-[2-(4-Amidinophenyl)-ethyl]-1-methyl-benzimidazol-5-yl-carbonylamino}-3-(4-amidinophenyl)-propionic Acid-diformate]
